Where two headings read alike, the source gives them in different places. {PEG40k} = 40 kDa polyethylene glycol; [invdT] = inverted (3'-3') thymidine; [HEG] = hexaethylene glycol spacer
What was measured:
PDGF BB = PDGF BB (Homo sapiens, UniProt P01127); assay: Competition binding assay, PDGF-BB; set-up: purchased PeproTech, Rocky Hill, N.J; settings: scrambled variant
Experimental: Binding reactions were carried out in phosphate-buffered saline (Cellgro, Herndon, Va.) containing 0.2 mg/mL bovine serum albumin (NEB) and 0.02 mg/mL tRNA (Sigma, St. Louis, Mo.). The reactions were equilibrated for a period of 15-30 minutes at room temperature, then filtered through a sandwich of nitrocellulose (Protran membrane, Perkin-Elmer, Boston, Mass.) and nylon (Hybond membrane, Amersham, Piscataway, N.J.) membranes to separate target bound aptamer from free aptamer.
Next, a study was done to determine whether ARC126 cross reacted with PDGF-BB of species other than human. Competition binding assays were set up by dot blot analysis, as previously described, using human, rat, and mouse PDGF-BB (PeproTech, Rocky Hill, N.J.).
The competitive binding assay previously described was used to determine the in vitro binding affinity and selectivity of ARC594 for different PDGF isoforms. Different concentrations of unlabeled, competitor aptamer were titrated in separate reactions against a fixed (<0.1 nM) amount of ^32P-radiolabeled ARC594 in buffer containing a fixed amount (0.1 nM) of the aptamer's cognate target (PDGF-BB; PeproTech). UnPEGylated version of ARC594 was radiolabeled at the 5′ terminus by incubation with γ-^32P-ATP (ICN) and polynucleotide kinase (NEB). Binding reactions were carried out in phosphate-buffered saline (Cellgro) containing 0.2 mg/mL bovine serum albumin (NEB) and 0.02 mg/mL tRNA (Sigma). The reactions were equilibrated for a period of 15-30 minutes at room temperature, then filtered through a sandwich of nitrocellulose (Protran membrane, Perkin-Elmer) and nylon (Hybond membrane, Amersham) membranes to separate target bound aptamer from free aptamer. […] The data was expressed as the ratio of the counts per minute (CPM) of radioactivity due to ^32P-ARC594 bound to PDGF BB on the nitrocellulose membrane (CPMnitrocellulose or CPMnc) over the total CPM (CPMtotal=CPMnitrocellulose+CPMnylon).

[1] = mouse, in vivo, 10 mg/kg
Excerpt: The pharmacokinetic (PK) data shown in FIG. 12A was subjected to non-compartmental analysis (NCA) using the industry-standard software package WinNonLin™ v.4.0 (Pharsight Corp., Mountain View, Calif.). […] The pharmacokinetic (PK) data shown in FIG. 12B was subjected to noncompartmental analysis (NCA) using the industry-standard software package WinNonLin™ v.4.0 (Pharsight Corp., Mountain View, Calif.).
The pharmacokinetic (PK) data shown in FIG. 12B was subjected to noncompartmental analysis (NCA) using the industry-standard software package WinNonLin™ v.4.0 (Pharsight Corp., Mountain View, Calif.).

PDGF BB, sequence (P01127 82-190 limits assumed): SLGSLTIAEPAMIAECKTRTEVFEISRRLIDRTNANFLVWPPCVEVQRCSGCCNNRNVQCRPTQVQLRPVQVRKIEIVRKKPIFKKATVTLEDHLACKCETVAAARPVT

5′-(SEQ ID NO.4)-HEG-(SEQ ID NO:5)-HEG-(SEQ ID NO:6)-3 (chain 1 CAGCGUACG; chain 2 CGTACCGATUCA; chain 3 TGAAGCUG; HEG spacers joining pieces; synthetic aptamer; modified_base (4)..(4) cytidine is 2′-fluoro; modified_base (5)..(5) gm; modified_base (6)..(6) uridine is 2′-fluoro; modified_base (8)..(8) cytidine is 2′-fluoro; modified_base (9)..(9) gm; modified_base (7)..(7) gm; modified_base (10)..(10) uridine is 2′-fluoro; modified_base (11)..(11) cytidine is 2′-fluoro; modified_base (12)..(12) adenosine is 2′-O-Methyl; modified_base (6)..(6) cytidine is 2′-fluoro; modified_base (7)..(7) uridine is 2′-fluoro; modified_base (8)..(8) gm) [ARC128, reference compound]
binding to PDGF (PDGF BB): no longer binds PDGF

5′-[40 K PEG]-(SEQ ID NO:1)-HEG-(SEQ ID NO:2)-HEG-(SEQ ID NO:3)-3′-dT-3′ (chain 1 CAGGCUACG; chain 2 CGTAGAGCAUCA; chain 3 TGATCCUG; piece 1: 2'-fluoro at 6, 8, 2'-O-methyl at 9, 5' {PEG40k}, 3' [HEG], other sugars and backbone not given here; piece 2: 2'-O-methyl at 5, 7, 12, 2'-fluoro at 10, 11, 3' [HEG], other sugars and backbone not given here; piece 3: 2'-fluoro at 5, 6, 7, 2'-O-methyl at 8, 3' [invdT], other sugars and backbone not given here) [ARC127]
Cmax ([1]; ip): 12.8 µM
Vz ([1]; ip): 0.078 L/kg
bioavailability, F ([1]; ip): 0.625
t1/2 ([1]; ip): 7.856 h
Cmax ([1]; iv): 29.7 µM
Vz ([1]; iv): 0.053 L/kg
bioavailability, F ([1]; iv): 1.000
Cmax ([1]; sc): 3.18 µM
Vz ([1]; sc): 0.238 L/kg
bioavailability, F ([1]; sc): 0.240
t1/2 ([1]; sc): 9.176 h
